According to patent publication US20080255244A1, “CaM Kinase II Inhibitor Improves Retinoic Acid Therapy and Inhibits the Proliferation of Myeloid Leukemia Cells” (Fred Hutchinson Cancer Research Center, priority 2007, published 2008):

What was measured:
Assay type in all cases: cell-based, human
Kasumi cells = assay: Kasumi proliferation in liquid suspension culture
Experimental: (§1) FIG. 11. […] (A) K562 cells were seeded in liquid suspension culture at 5×10^4 cells/ml in the presence or absence of the indicated concentration of compounds, and cell counts were obtained at the indicated time. (B) The indicated myeloid leukemia cell lines were seeded in liquid suspension culture at 5×10^4 cells/ml in the presence or absence of KN93, and cell counts obtained at the indicated time. (C) K562 cells were electroporated with the LXSN expression vector harboring the kinase dead, Lys^43 mutated, truncated CaMKII construct (kdCaMKII) as well as with the control (empty) LXSN vector. The electroporated cells were diluted into 96 well plates in liquid suspension culture in the presence of G418 (1 mg/ml). Following eight days of culture the total number of discrete, actively proliferating G418 resistant colonies within individual wells was determined.
(§2) Cell lines. All leukemia cell lines are cultured at 37° in RPMI supplemented with 5% heat-inactivated fetal calf serum.

KCL22 cells = assay: KCL22 proliferation in liquid suspension culture
Experimental: as §1, §2

[1] = test system: activated CaMKIIγ in KG1 cells; assay: Western blot of CaMKIIγ autophosphorylation in KG1 cells; conditions: five days ATRA
Experimental: (§3) FIG. 9. Terminal differentiation/apoptosis of myeloid leukemia cells is associated with decreased CaMKIIγ activation. (A) Lysates from the HL60, NB4 and U937 myeloid cell lines treated with ATRA (1 μM) for the indicated period of time were subjected to Western blots. (B) Lysates from the indicated myeloid cell lines treated for five days with the indicated concentration of ATRA were subjected to Western blots. (C) Lysates from HL60 cells treated with TPA (0.1 μM) for the indicated time were subjected to Western blots. (D) Lysates from NB4 cells treated with arsenic trioxide (1 uM) for the indicated time were subjected to Western blots.
(§4) Antibodies and Western blots. Protein extracts, immunoprecipitations and Western blots were performed as previously detailed (Si J, Collins S J. IL-3-induced enhancement of retinoic acid receptor activity is mediated through Stat5, which physically associates with retinoic acid receptors in an IL-3-dependent manner. Blood 100: 4401-9 (2002)). Antibodies against CaMKI, CaMKIIγ, CaMKIV, c-myc, Stat3, Stat5, calmodulin, as well as the phosphospecific CaMKII (T286, 287) and phosphospecific CaMKI (T177) antibodies were from Santa Cruz Biotechnology. […]

[2] = test system: activated CaMKIIγ in U937 cells; assay: Western blot of CaMKIIγ autophosphorylation in U937 cells
Experimental: as §3, §4

[3] = test system: activated CaMKIIγ in THP1 cells; assay: Western blot of CaMKIIγ autophosphorylation in THP1 cells; conditions: five days ATRA
Experimental: as §3, §4

Row | SMILES | cell proliferation (Kasumi cells) | cell viability or morphologic differentiation (Kasumi cells) | cell proliferation (KCL22 cells) | cell viability or morphologic differentiation (KCL22 cells) | activated CaMKIIγ level [1] | total CaMKIIγ level [2] | activated CaMKIIγ level ([2]; ATRA 1 μM) | activated CaMKIIγ level [3]
1 | COc1ccc(S(=O)(=O)N(CCO)c2ccccc2CN(C)C/C=C/c2ccc(Cl)cc2)cc1 [KN-93] | inhibition | without any significant effect | inhibition | without any significant effect |  |  |  | 
2 | CC1=C(/C=C/C(C)=C/C=C/C(C)=C/C(=O)O)C(C)(C)CCC1 [ATRA, All-trans retinoic acid] |  |  |  |  | did not exhibit any decrease | essentially unchanged | marked decrease | did not exhibit any decrease
